Earlier results, collected in US20120129153A1, “Diagnostic method for the prediction of the development and control of the effectiveness of the treatment of oncological illnesses” (priority 2010, published 2012).

Experiments:
[1] = test system: EBV-associated nasopharyngeal carcinomas; details: EBV-associated nasopharyngeal carcinomas in athymous mice
[2] = test system: neuroblastomal cells infected by HCMV; details: HCMV-infected neuroblastomal cells resistant to cysplatin and etoposide; virus reproduction blocked with Ganciclovir

SMILES	induction of apoptosis in EBV-transformed epithelial cells [1]	sensitivity of the cells to the action of anti-tumor drugs [2]
Nc1ccn(C[C@@H](CO)OCP(=O)(O)O)c(=O)n1 [Cidofovir, (S)-1-(3-hydroxy-2-phpsphonyl-methoxypropyl)cytosine]	causes a quick induction of apoptosis	–
Nc1nc(O)c2ncn(COC(CO)CO)c2n1 [Ganciclovir]	–	fully restored
